Source: PMC6100082, “Pyridine-Ureas as Potential Anticancer Agents: Synthesis and In Vitro Biological Evaluation” (Molecules : A Journal of Synthetic Chemistry and Natural …, 2018)

Columns and labels:
[1] = test system: NCI-H460; assay: NCI one-dose SRB assay (Non-Small Cell Lung Cancer); assay type: cell-based, human; conditions: for Growth Percent: NCI-H460, 1.00E-5 Molar; for inhibition at 10 µM: Homo sapiens, read-out: Percentage growth inhibition (GI%)
Protocol: (§1) The structures of all the newly prepared pyridine-ureas 8a–n were submitted to the National Cancer Institute (NCI) Developmental Therapeutic Program. Eight compounds 8b, 8d, 8e, 8i, 8j and 8l–n were selected to be examined for their in vitro growth inhibitory activity. The anticancer assays were carried out according to the protocol of the Drug Evaluation Branch, NCI, Bethesda. The selected pyridine-ureas were tested at one dose primary anticancer assay against a panel of approximately 58 cancer lines (concentration 10^−5 M). The tested human cancer cell lines emerged from nine different cancer subtypes: leukemia, colon, melanoma, ovarian, lung, CNS, renal, breast and prostate cancers. The sulforhodamine B (SRB) protein assay was adopted to estimate the cell viability and growth. The results were reported as mean-graph of the percentage growth of the treated cells, and presented as percentage growth inhibition (GI%) caused by the test compounds (Table 2).
(§2) The anticancer assays were performed in accordance with the protocol of the Drug Evaluation Branch, NCI, Bethesda. A 48 h drug exposure protocol was used and sulforhodamine B (SRB) protein assay was applied to estimate the cell viability and growth, as reported earlier.

[2] = test system: NCI-H322M; assay: as above; assay type: cell-based, human; conditions: for Growth Percent: 1.00E-5 Molar; for inhibition at 10 µM: Homo sapiens, read-out: Percentage growth inhibition (GI%)
Protocol: as §1, §2

[3] = test system: NCI-H522; assay: as above; assay type: cell-based, human; conditions: for Growth Percent: NCI-H522, 1.00E-5 Molar; for inhibition at 10 µM: Homo sapiens, read-out: Percentage growth inhibition (GI%)
Protocol: as §1, §2

[4] = test system: HOP-62; assay: as above; assay type: cell-based, human; conditions: for Growth Percent: HOP-62, 1.00E-5 Molar; for inhibition at 10 µM: Homo sapiens, read-out: Percentage growth inhibition (GI%)
Protocol: as §1, §2

[5] = test system: A549/ATCC; assay: as above; assay type: cell-based, human; conditions: for Growth Percent: 1.00E-5 Molar; for inhibition at 10 µM: Homo sapiens, read-out: Percentage growth inhibition (GI%)
Protocol: as §1, §2

[6] = test system: EKVX; assay: as above; assay type: cell-based, human; conditions: for Growth Percent: 1.00E-5 Molar; for inhibition at 10 µM: Homo sapiens, read-out: Percentage growth inhibition (GI%)
Protocol: as §1, §2

[7] = test system: HOP-92; assay: as above; assay type: cell-based, human; conditions: for Growth Percent: HOP-92, 1.00E-5 Molar; for inhibition at 10 µM: Homo sapiens, read-out: Percentage growth inhibition (GI%)
Protocol: as §1, §2

[8] = test system: NCI-H23; assay: as above; assay type: cell-based, human; conditions: for Growth Percent: NCI-H23, 1.00E-5 Molar; for inhibition at 10 µM: Homo sapiens, read-out: Percentage growth inhibition (GI%)
Protocol: as §1, §2

[9] = test system: NCI-H226; assay: as above; assay type: cell-based, human; conditions: for Growth Percent: NCI-H226, 1.00E-5 Molar; for inhibition at 10 µM: Homo sapiens, read-out: Percentage growth inhibition (GI%)
Protocol: as §1, §2

[10] = test system: HCC-2998; assay: NCI one-dose SRB assay (Colon Cancer); assay type: cell-based, human; conditions: for Growth Percent: HCC-2998, 1.00E-5 Molar; for inhibition at 10 µM: Homo sapiens, read-out: Percentage growth inhibition (GI%)
Outline: (§3)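 Single-dose screen at 10^−5 M over roughly 58 human cancer lines under the NCI protocol, with 48 h exposure. Growth estimated by sulforhodamine B protein staining and reported as percentage growth inhibition (GI%).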

[11] = test system: HCT-116; assay: NCI one-dose SRB assay (Colon Cancer); assay type: cell-based, human; conditions: for Growth Percent: HCT-116, 1.00E-5 Molar; for inhibition at 10 µM: Homo sapiens, read-out: Percentage growth inhibition (GI%)
Outline: as §3

[12] = target: VEGFR-2 (Homo sapiens, UniProt P35968); assay: VEGFR-2 inhibitory assay (Alpha Screen, anti-phosphotyrosine antibody)
[13] = test system: non-tumorigenic human lung fibroblast WI-38 cell line; assay: Cytotoxic activity against non-tumorigenic cells, MTT assay; assay type: cell-based; conditions: WI-38, MTT
Protocol: The cytotoxic activity of compounds 8b and 8e were evaluated against non-tumorigenic human lung fibroblast WI-38 cell line utilizing the MTT colorimetric assay developed by T. Mosmann (Table 3).
MCF-7 (human breast cancer cell line) and WI-38 (human lung fibroblast cell line), were obtained from American Type Culture Collection (Manassas, VA, USA). The cells were propagated in DMEM and supplemented with 10% heat-inactivated FBS (Hyclone), 10 μg/mL of insulin (Manufacturer, Sigma, St. Louis, MO, USA), and 1% penicillin-streptomycin. MTT assay was utilized to examine the in vitro anti-proliferative activity of the newly prepared ureas following the reported procedures. […] The data presented are the mean of at least three separate experiments.

VEGFR-2, sequence (P35968 20-1356, species assumed): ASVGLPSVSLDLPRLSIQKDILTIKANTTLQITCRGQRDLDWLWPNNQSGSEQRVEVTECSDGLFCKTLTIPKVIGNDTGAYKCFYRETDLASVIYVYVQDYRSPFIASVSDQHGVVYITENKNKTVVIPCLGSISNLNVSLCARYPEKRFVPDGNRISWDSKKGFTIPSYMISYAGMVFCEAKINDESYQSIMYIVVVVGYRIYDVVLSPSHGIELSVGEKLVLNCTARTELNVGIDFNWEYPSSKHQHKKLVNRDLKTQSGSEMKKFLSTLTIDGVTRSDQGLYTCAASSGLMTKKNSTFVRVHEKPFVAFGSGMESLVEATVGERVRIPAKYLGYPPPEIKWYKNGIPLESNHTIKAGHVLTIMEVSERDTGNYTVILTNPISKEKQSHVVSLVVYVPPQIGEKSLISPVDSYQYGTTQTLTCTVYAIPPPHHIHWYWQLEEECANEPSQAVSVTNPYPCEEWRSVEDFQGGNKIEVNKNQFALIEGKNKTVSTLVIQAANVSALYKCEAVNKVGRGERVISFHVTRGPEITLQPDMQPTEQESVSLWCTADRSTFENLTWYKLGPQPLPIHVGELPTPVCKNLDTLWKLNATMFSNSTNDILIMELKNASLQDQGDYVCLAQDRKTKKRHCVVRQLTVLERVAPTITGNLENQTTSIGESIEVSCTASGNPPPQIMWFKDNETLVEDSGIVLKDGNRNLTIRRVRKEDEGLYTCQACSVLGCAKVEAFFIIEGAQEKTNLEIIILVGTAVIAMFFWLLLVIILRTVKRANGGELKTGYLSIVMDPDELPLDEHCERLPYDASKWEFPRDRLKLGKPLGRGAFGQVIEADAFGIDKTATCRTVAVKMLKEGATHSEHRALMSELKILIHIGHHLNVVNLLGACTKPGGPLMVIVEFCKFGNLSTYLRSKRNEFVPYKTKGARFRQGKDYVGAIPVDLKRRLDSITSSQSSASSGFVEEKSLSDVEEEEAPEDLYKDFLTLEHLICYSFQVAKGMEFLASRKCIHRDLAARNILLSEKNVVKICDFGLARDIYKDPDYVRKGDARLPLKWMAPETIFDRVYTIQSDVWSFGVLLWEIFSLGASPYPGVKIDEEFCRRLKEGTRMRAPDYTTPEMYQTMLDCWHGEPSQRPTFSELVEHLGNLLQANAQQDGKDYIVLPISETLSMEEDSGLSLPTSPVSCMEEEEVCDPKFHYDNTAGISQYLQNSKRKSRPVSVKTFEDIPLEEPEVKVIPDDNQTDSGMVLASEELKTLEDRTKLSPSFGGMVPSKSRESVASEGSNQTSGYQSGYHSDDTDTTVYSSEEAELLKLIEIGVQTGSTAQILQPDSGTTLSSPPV

Compound	Growth Percent [1] [%]	Growth Percent [2] [%]	Growth Percent [3] [%]	Growth Percent [4] [%]	Growth Percent [5] [%]	Growth Percent [6] [%]	Growth Percent [7] [%]	Growth Percent [8] [%]	Growth Percent [9] [%]	Growth Percent [10] [%]	Growth Percent [11] [%]	inhibition at 10 µM ([1]; NCI-H460, 10 μM) [%]	inhibition at 10 µM ([2]; 10 μM) [%]	inhibition at 10 µM ([3]; NCI-H522, 10 μM) [%]	inhibition at 10 µM ([4]; HOP-62, 10 μM) [%]	inhibition at 10 µM ([5]; 10 μM) [%]	inhibition at 10 µM ([6]; 10 μM) [%]	inhibition at 10 µM ([7]; HOP-92, 10 μM) [%]	inhibition at 10 µM ([8]; NCI-H23, 10 μM) [%]	inhibition at 10 µM ([9]; NCI-H226, 10 μM) [%]	further results
1-(4-Chloro-4-(trifluoromethyl)cyclohexa-2,5-dien-1-yl)-3-(6-(3,4-dimethoxyphenyl)-2-methylpyridin-3-yl)urea [Compound 8l]	52.19	87.05	43.02	77.10	44.62	67.30	70.53	71.36	72.73	93.63	45.30										Percentage growth inhibition (GI%) ([1]; NCI-H460, 10 μM): 48%; Percentage growth inhibition (GI%) ([2]; 10 μM): 13%; Percentage growth inhibition (GI%) ([3]; NCI-H522, 10 μM): 57%; Percentage growth inhibition (GI%) ([4]; HOP-62, 10 μM): 23%; Percentage growth inhibition (GI%) ([5]; 10 μM): 56%; Percentage growth inhibition (GI%) ([6]; 10 μM): 33%; Percentage growth inhibition (GI%) ([7]; HOP-92, 10 μM): 30%; Percentage growth inhibition (GI%) ([8]; NCI-H23, 10 μM): 29%; Percentage growth inhibition (GI%) ([9]; NCI-H226, 10 μM): 28%; Percentage growth inhibition (GI%) ([10]; HCC-2998, 10 μM): - (Only GI% higher than 10% are shown); Percentage growth inhibition (GI%) ([11]; HCT-116, 10 μM): 55%
COc1ccc(-c2ccc(NC(=O)Nc3cccc(C(F)(F)F)c3)c(C)n2)cc1 [Compound 8b, 1-(6-(4-Methoxyphenyl)-2-methylpyridin-3-yl)-3-(3-(trifluoromethyl)phenyl) Urea]	48.67	64.44	28.48	67.99	42.47	41.42	68.79	47.63	58.09	81.09	26.93	52	36	72	33	58	59	32	53	42	IC50 [12]: 5 ± 1.91 µM; inhibition at 10 µM ([10]; HCC-2998, 10 μM): 19%; inhibition at 10 µM ([11]; HCT-116, 10 μM): 74%; IC50 [13]: 91.5 ± 4.53 µM
COc1ccc(-c2ccc(NC(=O)Nc3ccc(Cl)cc3)c(C)n2)cc1 [Compound 8d, 1-(4-Chlorophenyl)-3-(6-(4-methoxyphenyl)-2-methylpyridin-3-yl) Urea]	64.55	65.27	67.47	81.25	68.26	92.90	81.02	94.08	97.81	104.24	76.10	36	35	33	19	32	< 10	19	< 10	< 10	inhibition at 10 µM ([10]; HCC-2998, 10 μM): < 10%; inhibition at 10 µM ([11]; HCT-116, 10 μM): 24%
